According to patent US20190350909A1, “COMPOSITIONS AND METHODS FOR MODULATING HAIR GROWTH” (priority 2018, published 2019):
Entries after “also recorded” stand apart in the source; their conditions may differ.

Assays:
Type in all cases: in vivo, C57BL/6 mice
hair cycle = assay: Hair cycle analysis after topical treatment of shaved dorsal skin of telogen-stage mice; settings: topical treatment during telogen, macroscopic and H&E follicle morphology (FIG. 2A-2C)
Experimental: (§1) Wildtype male and female 49-day old C57BL/6 mice were obtained from Jackson Laboratories for all topical experiments. All animals were maintained in UCLA's Division of Laboratory Medicine (DLAM)-approved pathogen-free barrier facilities and procedures were performed using protocols that adhere to the standards of the UCLA Animal Research Committee (ARC), Office of Animal Research Oversight (OARO), and the National Institutes of Health (NIH).
(§2) All drugs were suspended in DMSO and aliquoted at approximately 5 times IC50 or EC50 for the purposes of penetrating the epidermal barrier upon in vivo application. Aliquots were then mixed with the appropriate volume of Premium Lecithin Organogel (PLO) Base (Transderma Pharmaceuticals Inc.) and topically applied onto the shaved dorsal skin of 49 day old telogen-stage mice. Three experiment timepoints were used: acute treatment (two doses across 48 hours), 1 week treatment (three doses across five days) or long-term studies (one dose three times a week for approximately 1.5 weeks). Full-thickness dorsal skin was collected for histological analysis, cryosectioning, RNA isolation, and/or for epidermal stem cell isolation according to well-established FACS protocol.
Hair cycles were assessed macroscopically by observational and photographic documentation. A scale was established to grade hair cycle stage: 1) telogen (pink, white skin when dorsally shaved); 2) pigmentation (broad blue/grey pigment spots/patches on shaved dorsal area); 3) hair growth (dark pigmentation coupled with small patches of fur); 4) anagen (dark, full patches of fur within dorsal area) in relation to number of doses and elapsed time of treatment. H&E images of all treatment conditions were imaged at 20× magnification to assess morphological changes in control and treated skin. Hair cycle stages were also evaluated by follicular morphology into respective telogen, telogen-to-anagen transition, or anagen categories.
A set of full-thickness skin samples were obtained from post-mortem tissue harvesting, fixed overnight in 4% paraformaldehyde, and then dehydrated for paraffin embedding and slide generation; hematoxylin and eosin staining according to standard protocol. For immunohistochemistry, formalin-fixed, paraffin-embedded tissue slides were cleared and rehydrated through a series of ethanol washes. Antigen retrieval (20 min in pressure cooker, microwaved at 100 power) was performed with 10 mM citrate. Slides were incubated in hydrogen peroxide (30 min at 4 C) and then blocked with 10% goat serum/0.1% tween for 1 hour at room temperature. Primary antibodies were added and incubated overnight. The following antibodies were used—rabbit pCreb (Cell Signaling 9198, 1:800); rabbit Sox9 (Abcam 185966, 1:800); rabbit Ki67 sp6 (Abcam 16667, 1:50); rabbit PCNA (Cell Signaling 13110, 1:700); rabbit cFos (Abcam 7963, 1:100). Sections were washed the following day with 0.1% PBST and incubated with rabbit secondary HRP-labeled polymer (Dako) for 1 hour at room temperature, and then quickly washed with 0.1% PBST and PBS. AEC chromogen (Vector) was used for the colometric development reaction. Slides were then briefly counterstained with hemotoxylin, mounted with Faramount Aqueous Mounting Media (Dako) and sealed for subsequent visualization by light microscopy.
Bright-field immunohistochemistry and hematoxylin/eosin-stained images were captured using an Olympus BX51 light microscope at 20× magnification or 40× using oil immersion.

[1] = tested on: lactate dehydrogenase (Ldh); assay: Ldh activity assay (in situ and plate reader) on treated skin/epidermis; settings: epidermis isolated from treated male or female animals (FIG. 4A)
Experimental: as §1, §2

Ldha protein, pCreb = assay: Western blot of epidermis from treated animals for pCreb and Ldha protein; settings: epidermis from treated animals (FIG. 4C)
Experimental: Wildtype male and female 49-day old C57BL/6 mice were obtained from Jackson Laboratories for all topical experiments. All animals were maintained in UCLA's Division of Laboratory Medicine (DLAM)-approved pathogen-free barrier facilities and procedures were performed using protocols that adhere to the standards of the UCLA Animal Research Committee (ARC), Office of Animal Research Oversight (OARO), and the National Institutes of Health (NIH). […] All drugs were suspended in DMSO and aliquoted at approximately 5 times IC50 or EC50 for the purposes of penetrating the epidermal barrier upon in vivo application. […] Three experiment timepoints were used: acute treatment (two doses across 48 hours), 1 week treatment (three doses across five days) or long-term studies (one dose three times a week for approximately 1.5 weeks). Full-thickness dorsal skin was collected for histological analysis, cryosectioning, RNA isolation, and/or for epidermal stem cell isolation according to well-established FACS protocol.

Creb (pCreb) = assay: Immunohistochemistry of treated skin for Creb signaling, HFSC and proliferation markers
Experimental: as §1
as §2, with “protocol. […]” for “protocol.”

relative Ldh activity in lysed epidermis [1] | Structure (SMILES) | effect on hair cycle progression / reentry into anagen (hair cycle) | effect on hair cycle progression / reentry into anagen (hair cycle; listed as H-89) | Creb activation (pCreb) (western blot) (Ldha protein, pCreb) | activation of Creb (pCreb) by immunohistochemistry (Creb (pCreb); acute 48 hours topical treatment, HFSCs and IFE (FIG. 3B)) | canonical Creb target expression (cFos staining) (Creb (pCreb); acute treatment (FIG. 3B))
did not demonstrate altered Ldh activity | O=S(=O)(NCCNC/C=C/c1ccc(Br)cc1)c1cccc2cnccc12 [H89, reference compound] | slowed hair cycle progression; also recorded: delays reentry into anagen; also recorded: slowed the hair cycle dramatically | delayed reentry into anagen | inhibition of Creb |  | 
 | CCOc1ccc(OCC)c(NC(=O)CSc2nc3c(cc2C#N)=CC2OCCOC2C=3)c1 (stereo not shown) [#62] | strongly accelerate the hair cycle |  |  |  | 
 | COc1ccc(NC(=O)CSc2nc3c(cc2C#N)=CC2OCCOC2C=3)c(OC)c1 (stereo not shown) [#61] | accelerated reentry into anagen; also recorded: strongly accelerate the hair cycle; also recorded: accelerated hair growth |  |  |  | 
high Ldh activity | COc1ccccc1NC(=O)CSc1nc2c(cc1C#N)=CC1OCCOC1C=2 (stereo not shown) [#44] | accelerated reentry into anagen; also recorded: strongly accelerate the hair cycle; also recorded: accelerated hair growth |  |  | activation of Creb (pCreb) in HFSCs (and IFE) | induced levels of transcript for canonical Creb targets
